Results: article PMC11292009, “Mapping protein binding sites by photoreactive fragment pharmacophores” (Communications Chemistry, 2024)

Legend:
Format in all cases: binding
myoglobin (Myo) = assay: Intact protein MS photoaffinity labeling screen, myoglobin; details: intact protein MS after 10 min irradiation
Experimental: (§1) Using a plate-based format with one fragment per well, each fragment was incubated with the target proteins for 15 min to allow for the formation of non-covalent interactions. […] Finally, the results were directly analyzed from the plate using intact protein mass spectrometry by observing the mass additions that correspond to successful labeling (Fig. 2c, for labeling % values see Supplementary data). The library was first characterized against three benchmark proteins like carbonic anhydrase (CA), lysozyme (Lyo), and myoglobin (Myo).

KRas^G12D = test system: T1, KRas^G12D; assay: Intact MS photoaffinity labeling screen, KRas G12D (302 nm, LCMS-TOF); details: for MS labeling percentage, KRas: KRas G12D, 302 nm 10 min; for KRAS-G12D: experimental hit status flag (0/1); for experimental hit status KRAS-G12D: 0/1 flag
T1 construct: purchased GSK/GenScript
Experimental: as §1
(§2) The PhP library was screened against BRD4-BD1 and KRas^G12D as follows. […] The probe plate was placed on ice. 15 μL of protein stock solution (1 μM BRD4-BD1 (GSK/GenScript) or KRas^G12D (GSK/GenScript) in PBS buffer) was dispensed into wells containing fragments. The plate was left on ice for 15 min for incubation, then irradiated at 302 nm for 10 min, and centrifuged (1000 rpm, 1 min) to remove any bubbles. […] The deconvoluted spectra were analyzed using R Studio software.

STAT5B-NTD [1] = test system: T2, STAT5B-NTD; assay: Intact MS photoaffinity labeling screen, STAT5B-NTD (365 nm, UHPLC-MS); details: for MS labeling percentage, STAT5B: STAT5B-NTD, 365 nm 10 min, no photocatalyst; for STAT5B-NTD: experimental hit status flag (0/1); for experimental hit status STAT5B-NTD: 0/1 flag;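 as to MS labeling percentage, STAT5B: 0.17 µL of 100 mM DMSO fragment stock added to the protein sample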
T2 construct: His-SUMO (N, cleaved yes); made in house; host or cells: E. coli BL21 RILP
Experimental: STAT5B protein in 7 µM concentration in pH 7.4 PBS buffer was pre-incubated with 0.17 µL PhP (in 100 mM DMSO solution) for 1 h at room temperature in dark. Irradiation was carried out at 4 °C for 10 min using 365 nm UV lamp.
(§3) During the analysis, the column temperature was maintained at a constant 60 °C, and a sample volume of 3 µL was injected for each analysis. Data acquisition was conducted in positive ion mode within the m/z 100–2000 (mass-to-charge ratio) range. For the full protocol and spectra of the hits, see Supplementary Note 2.

STAT5B-NTD [2] = test system: T2, STAT5B-NTD; assay: Intact MS labeling screen, STAT5B-NTD conjugated with photocatalyst Ir-G2-PEG3-COOH (450 nm); details: 450 nm 10 min;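 also: 0.14 µL of 100 mM DMSO fragment stock added to the conjugate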
Experimental: For the photocatalysis experiments, 1.4 µL photocatalyst (in 1.4 mM DMSO solution, 10 eq) was pre-incubated with 1.5 µL coupling reagent (0.75 µL, 5.6 mM EDC (20 eq)+0.75 µL 4.2 mM NHS and 1.5 µL 2.1 mM (15 eq) BOP for 30 min in dark. 30 µL STAT5B-NTD (in 7 µM concentration) was added and incubated further at room temperature overnight or at 37 °C for 1 h in dark. After addition of 0.14 µL PhP (in 100 mM DMSO) the solution was further incubated in dark for 1 h. Irradiation was carried out using 450 nm LED lamp (7.6Vx0A) for 10 min at 4 °C.
as §3

lysozyme (Lyo) = assay: Intact protein MS photoaffinity labeling screen, lysozyme; details: intact protein MS after 10 min irradiation
Experimental: as §1

BRD4-BD1 = test system: T3, BRD4-BD1; assay: Intact MS photoaffinity labeling screen, BRD4-BD1 (302 nm, LCMS-TOF); details: for MS labeling percentage, BRD4: BRD4-BD1, 302 nm 10 min; for BRD4-BD1: experimental hit status flag (0/1); for experimental hit status BRD4-BD1: 0/1 flag
T3 construct: screened the PhP library against the first bromodomain of BRD4 (BRD4-BD1); purchased GSK/GenScript
Experimental: as §1, §2

[3] = test system: carbonic anhydrase II (CA); assay: Intact protein MS photoaffinity labeling screen, carbonic anhydrase; details: intact protein MS after 10 min irradiation
Experimental: as §1

SMILES	MS labeling percentage, Myo (myoglobin (Myo)) [%]	MS labeling percentage, KRas (KRas^G12D) [%]	KRAS-G12D (KRas^G12D)	MS labeling percentage, STAT5B (STAT5B-NTD [1]) [%]	STAT5B-NTD (STAT5B-NTD [1])	MS labeling percentage, STAT5B+photocat (STAT5B-NTD [2]) [%]	MS labeling percentage, Lyo (lysozyme (Lyo)) [%]	MS labeling percentage, BRD4 (BRD4-BD1) [%]	BRD4-BD1 (BRD4-BD1)	MS labeling percentage, CA [3] [%]	experimental hit status KRAS-G12D (KRas^G12D)	experimental hit status STAT5B-NTD (STAT5B-NTD [1])	experimental hit status BRD4-BD1 (BRD4-BD1)
CC1(CCC(=O)Nc2nc(-c3c[nH]c(C(N)=O)c3)cs2)N=N1 [PhP011, N1=NC1(C)CCC(=O)Nc2nc(cs2)-c3c[nH]c(c3)C(=O)N]	0	0.2	0	2	0	3.4	0	0.2	0	0			
CC(Cc1cccc(OCc2ccccc2)c1)NC(=O)CCC1(C)N=N1 (stereo not shown) [PhP013, N1=NC1(C)CCC(=O)NC(C)Cc2cccc(c2)OCc3ccccc3]	0.3		0	0	0	8.8	0.3	40.6	0	0.4			
COC(=O)C(Cc1c[nH]c2ccccc12)NC(=O)CCC1(C)N=N1 (stereo not shown) [PhP014, N1=NC1(C)CCC(=O)NC(C(=O)OC)Cc(c[nH]2)c(c23)cccc3]	0.1	1.3	0	2	0	7.7	0.3	0.4	0	0.3			
CC1(CCC(=O)NC2CCCC(NC(=O)OC(C)(C)C)C2)N=N1 (stereo not shown) [PhP015, CC(C)(C)OC(=O)NC1CCCC(C1)NC(=O)CCC2(C)N=N2]	0.2	0.6	0	1	0	1.6	1.1	0.3	0	0.3			
CC1(CCC(=O)NC2CCc3nc(C(C)(C)C)cn3C2)N=N1 (stereo not shown) [PhP016, CC(C)(C)c(c1)nc(n12)CCC(C2)NC(=O)CCC3(C)N=N3]	0.2	0.2	0	0	0	8.9	0	0.3	0	0.6			
Cc1nc2cc(NC(=O)CCC3(C)N=N3)ccc2n1-c1ccccc1 [PhP017, c1ccccc1-n(c(n2)C)c(c23)ccc(c3)NC(=O)CCC4(C)N=N4]	0.5	0.9	0	1	0	4.4	0.1	3.4	0	0.6			
COC(=O)C(NC(=O)CCC1(C)N=N1)c1ccc(C)cc1 (stereo not shown) [PhP019, c1cc(C)ccc1C(C(=O)OC)NC(=O)CCC2(C)N=N2]	0.1	0		1		2.7	0	0.3		0.2	0	0	0
Cn1c(CCNC(=O)CCC2(C)N=N2)nc2ccccc21 [PhP020, c1cccc(c12)n(C)c(n2)CCNC(=O)CCC3(C)N=N3]	0.3	0		0		0.6	0	0.4		0.2	0	0	0
